Data as given in PubChem BioAssay AID2060327 (Molecular Pharmacology Branch, DTP, NCI, 2025).

Test system: PC-3 multi-cell spheroids, viability
Assay: Anticancer human tumor PC-3 cell line growth inhibition [IpAb];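 also: spheroids exposed to compounds for 7 days before readout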;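 as to viability, T/C: 100% = DMSO vehicle control wells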
Conditions: for IC50: curve of first compound; for viability, T/C: stronger effect = lower value
Method in brief: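 Multi-cell spheroids of 60% tumour cells, 25% HUVEC and 15% MSC in ultra-low-attachment U-bottom wells, treated with agents combined with ipatasertib or abemaciclib. Half-log ranges top out near clinical Cmax, or 10 microM when Cmax is unknown.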

[1] = second compound 0.01 µM, first compound 0.0316 µM
[2] = second compound 0.01 µM, first compound 0.1 µM
[3] = second compound 0.0316 µM, first compound 0.0316 µM
[4] = second compound 0.0316 µM, first compound 0.1 µM
[5] = second compound 0.1 µM, first compound 0.0316 µM
[6] = second compound 0.1 µM, first compound 0.1 µM
[7] = second compound 0.316 µM, first compound 0.0316 µM
[8] = second compound 0.316 µM, first compound 0.1 µM
[9] = second compound 1 µM, first compound 0.0316 µM
[10] = second compound 1 µM, first compound 0.1 µM

Structure (SMILES): C=CCn1c(=O)c2cnc(Nc3ccc(N4CCN(C)CC4)cc3)nc2n1-c1cccc(C(C)(C)O)n1 + CCN1CCN(Cc2ccc(Nc3ncc(F)c(-c4cc(F)c5nc(C)n(C(C)C)c5c4)n3)nc2)CC1
- IC50 (second compound 0.01 µM): 515 nM
- IC50 (second compound 0.0316 µM): 290 nM
- IC50 (second compound 0.1 µM): 446 nM
- IC50 (second compound 0.316 µM): 450 nM
- IC50 (second compound 1 µM): 290 nM
- viability, T/C [1]: 66.6%
- viability, T/C [2]: 76.6%
- viability, T/C (second compound 0.01 µM, first compound 0.316 µM): 53.7%
- viability, T/C (second compound 0.01 µM, first compound 1 µM): 42.5%
- viability, T/C (second compound 0.01 µM, first compound 3.16 µM): 22%
- viability, T/C (second compound 0.01 µM, first compound 10 µM): 27.1%
- viability, T/C [3]: 67.4%
- viability, T/C [4]: 54.7%
- viability, T/C (second compound 0.0316 µM, first compound 0.316 µM): 51.9%
- viability, T/C (second compound 0.0316 µM, first compound 1 µM): 39.6%
- viability, T/C (second compound 0.0316 µM, first compound 3.16 µM): 24%
- viability, T/C (second compound 0.0316 µM, first compound 10 µM): 26.4%
- viability, T/C [5]: 59.9%
- viability, T/C [6]: 51.2%
- viability, T/C (second compound 0.1 µM, first compound 0.316 µM): 52.6%
- viability, T/C (second compound 0.1 µM, first compound 1 µM): 41.4%
- viability, T/C (second compound 0.1 µM, first compound 3.16 µM): 24%
- viability, T/C (second compound 0.1 µM, first compound 10 µM): 24.5%
- viability, T/C [7]: 59.6%
- viability, T/C [8]: 56.3%
- viability, T/C (second compound 0.316 µM, first compound 0.316 µM): 52.2%
- viability, T/C (second compound 0.316 µM, first compound 1 µM): 43.2%
- viability, T/C (second compound 0.316 µM, first compound 3.16 µM): 26.3%
- viability, T/C (second compound 0.316 µM, first compound 10 µM): 24.9%
- viability, T/C [9]: 55.7%
- viability, T/C [10]: 53.3%
- viability, T/C (second compound 1 µM, first compound 0.316 µM): 51.1%
- viability, T/C (second compound 1 µM, first compound 1 µM): 38.7%
- viability, T/C (second compound 1 µM, first compound 3.16 µM): 31.6%
- viability, T/C (second compound 1 µM, first compound 10 µM): 25.1%

Structure (SMILES): CC(C)n1nc(-c2ccc3oc(N)nc3c2)c2c(N)ncnc21 + CCN1CCN(Cc2ccc(Nc3ncc(F)c(-c4cc(F)c5nc(C)n(C(C)C)c5c4)n3)nc2)CC1
- IC50 (second compound 0.01 µM): 1.99 nM
- IC50 (second compound 0.0316 µM): 2.07 nM
- IC50 (second compound 0.1 µM): 1.93 nM
- IC50 (second compound 0.316 µM): 1.81 nM
- IC50 (second compound 1 µM): 1.14 nM
- viability, T/C (second compound 0.01 µM, first compound 0.000316 µM): 81.9%
- viability, T/C (second compound 0.01 µM, first compound 0.001 µM): 56.2%
- viability, T/C (second compound 0.01 µM, first compound 0.00316 µM): 48.6%
- viability, T/C (second compound 0.01 µM, first compound 0.01 µM): 25.9%
- viability, T/C [1]: 11%
- viability, T/C [2]: 10%
- viability, T/C (second compound 0.0316 µM, first compound 0.000316 µM): 55.2%
- viability, T/C (second compound 0.0316 µM, first compound 0.001 µM): 55.7%
- viability, T/C (second compound 0.0316 µM, first compound 0.00316 µM): 47%
- viability, T/C (second compound 0.0316 µM, first compound 0.01 µM): 18.6%
- viability, T/C [3]: 11.7%
- viability, T/C [4]: 9.52%
- viability, T/C (second compound 0.1 µM, first compound 0.000316 µM): 59.1%
- viability, T/C (second compound 0.1 µM, first compound 0.001 µM): 54.8%
- viability, T/C (second compound 0.1 µM, first compound 0.00316 µM): 45.7%
- viability, T/C (second compound 0.1 µM, first compound 0.01 µM): 20%
- viability, T/C [5]: 11.2%
- viability, T/C [6]: 9.73%
- viability, T/C (second compound 0.316 µM, first compound 0.000316 µM): 65.3%
- viability, T/C (second compound 0.316 µM, first compound 0.001 µM): 61.8%
- viability, T/C (second compound 0.316 µM, first compound 0.00316 µM): 39.2%
- viability, T/C (second compound 0.316 µM, first compound 0.01 µM): 20.1%
- viability, T/C [7]: 13.7%
- viability, T/C [8]: 10.8%
- viability, T/C (second compound 1 µM, first compound 0.000316 µM): 55.4%
- viability, T/C (second compound 1 µM, first compound 0.001 µM): 54.3%
- viability, T/C (second compound 1 µM, first compound 0.00316 µM): 35.3%
- viability, T/C (second compound 1 µM, first compound 0.01 µM): 24.1%
- viability, T/C [9]: 15.7%
- viability, T/C [10]: 13.8%
